Data: patent publication US20230023092A1, “TREATMENT OF DEPRESSION AND OTHER VARIOUS DISORDERS WITH PSILOCYBIN” (COMPASS […], priority 2019, published 2023)

System: healthy subjects
Experiment: CANTAB global composite score
Assay type: in vivo, human
Details: 10 mg, Day 7
Method: The following list of outcome measures are non-exhaustive. • a. The short-term change from Baseline (Day −1 [Visit 2]) to Day 7 (Visit 5) in cognitive measures of attention, spatial and working memory and executive function was measured by a composite score of the CANTAB Panel (Spatial Working Memory [SWM], Rapid Visual Information Processing [RVP], Paired Associates Learning [PAL]). • b. The short-term change from Baseline (Day −1 [Visit 2]) to Day 7 (Visit 5) in Social Cognition Panel scales (Pictorial Empathy Test [PET], Reading the Mind in the Eyes Test [RMET], Toronto Empathy Questionnaire [TEQ], Social Value Orientation [SVO], Scale of Social Responsibility [SSR]). • c. The change from Baseline (Day −1 [Visit 2]) to Day 28 (Visit 6) in cognitive measures of attention, spatial and working memory and executive function as measured by a composite score of the CANTAB Panel (SWM, RVP, PAL). • d. […] Dose-related differences between cognitive effects of psilocybin at Baseline (Day −1 [Visit 2]), Day 7 (Visit 5) and Day 28 (Visit 6), as measured by a composite score of the CANTAB Panel (SWM, RVP, PAL). • f. Dose-related differences between psychological effects of psilocybin at Baseline (Day −1 [Visit 2]), Day 7 (Visit 5) and Day 84 (Visit 7), as measured by Social Cognition Panel scales (PET, RMET, TEQ, SVO, SSR). • g. […]

In the case of CN(C)CCc1c[nH]c2cccc(OP(=O)(O)O)c12 [Psilocybin, psilocybin], the “CANTAB global composite score, effect size of difference from placebo” value is reported as 0.53 and the “CANTAB global composite score, LS mean difference from placebo” value (p value ~0.04460) is reported as −0.1832.
